Assay results reported in PubChem BioAssay AID1159605 (The Scripps Research Institute Molecular Screening Center, 2016).
Calls of active or inactive are those of the source.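 The calls were made as follows: active = IC50 of 10 µM or lower; inactive = IC50 above 10 µM.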

biological target: Mitogen-activated protein kinase kinase kinase 5 (Homo sapiens) (UniProt Q99683); assay: ASK1 kinase inhibitor potency, dose response, biochemical, AlphaScreen, MKK6 phosphorylation (AID 1159605); conditions: AlphaScreen luminescence;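 also: ASK1 phosphorylation of MKK6 substrate detected with anti-phospho-MKK6 antibody beads; inhibitors lower the luminescent signal by blocking MKK6 phosphorylation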
Sequence (Q99683 whole entry, looked up): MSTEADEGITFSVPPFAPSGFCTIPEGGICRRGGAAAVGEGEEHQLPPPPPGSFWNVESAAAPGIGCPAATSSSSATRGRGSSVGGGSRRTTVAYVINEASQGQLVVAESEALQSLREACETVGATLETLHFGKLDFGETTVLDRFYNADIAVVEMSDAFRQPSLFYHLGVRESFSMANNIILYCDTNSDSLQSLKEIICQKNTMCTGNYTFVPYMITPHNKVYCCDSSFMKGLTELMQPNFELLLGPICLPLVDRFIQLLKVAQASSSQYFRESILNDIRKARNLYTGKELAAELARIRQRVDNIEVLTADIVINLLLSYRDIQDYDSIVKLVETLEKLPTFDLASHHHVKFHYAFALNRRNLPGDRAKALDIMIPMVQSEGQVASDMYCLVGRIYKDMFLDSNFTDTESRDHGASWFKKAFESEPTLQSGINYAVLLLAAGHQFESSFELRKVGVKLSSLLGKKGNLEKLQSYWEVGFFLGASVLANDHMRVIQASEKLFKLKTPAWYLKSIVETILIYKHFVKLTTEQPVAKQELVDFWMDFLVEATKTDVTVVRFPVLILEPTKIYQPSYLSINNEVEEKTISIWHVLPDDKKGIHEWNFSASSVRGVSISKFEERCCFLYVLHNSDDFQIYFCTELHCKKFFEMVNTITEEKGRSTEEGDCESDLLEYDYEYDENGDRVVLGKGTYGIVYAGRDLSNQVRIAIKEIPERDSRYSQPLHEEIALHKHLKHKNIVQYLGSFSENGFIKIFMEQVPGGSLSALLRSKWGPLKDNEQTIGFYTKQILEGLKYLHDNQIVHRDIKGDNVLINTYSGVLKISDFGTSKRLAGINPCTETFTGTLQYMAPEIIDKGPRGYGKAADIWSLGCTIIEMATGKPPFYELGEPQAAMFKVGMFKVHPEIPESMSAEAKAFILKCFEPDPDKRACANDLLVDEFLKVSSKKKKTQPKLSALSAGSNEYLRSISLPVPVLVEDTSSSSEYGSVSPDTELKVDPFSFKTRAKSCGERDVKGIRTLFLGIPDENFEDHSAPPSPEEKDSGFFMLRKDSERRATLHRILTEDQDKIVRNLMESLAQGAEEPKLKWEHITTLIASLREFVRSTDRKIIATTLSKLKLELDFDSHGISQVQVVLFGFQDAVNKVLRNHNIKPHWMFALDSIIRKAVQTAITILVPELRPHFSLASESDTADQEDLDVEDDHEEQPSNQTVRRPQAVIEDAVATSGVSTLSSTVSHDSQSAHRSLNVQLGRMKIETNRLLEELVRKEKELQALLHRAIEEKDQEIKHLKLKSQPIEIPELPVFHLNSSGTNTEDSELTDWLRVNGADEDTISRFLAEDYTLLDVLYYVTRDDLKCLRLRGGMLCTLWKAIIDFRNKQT

SMILES	IC50
NC(=O)c1ccc(-c2nc(NCc3cccc(C(F)(F)F)c3)c3ncn(Cc4ccc(C(F)(F)F)cc4)c3n2)cc1	> 17.3 µM (inactive)
COc1ccc(-c2nc3ncnc(Nc4cc(OC)c(OC)c(OC)c4)c3[nH]2)cn1	> 18.1 µM (inactive)
CC(C)NC(=O)c1cccc(NC(=O)Nc2ccc(-c3ccnc4[nH]ccc34)cc2)c1	> 19.2 µM (inactive)
Cc1cc(Nc2ccc(N3CCOCC3)cc2)nc(N2CCc3ccccc3C2)n1	inactive
FC(F)(F)c1ccc(Cn2cnc3c(NCc4ccccc4)nc(-c4ccc(N5CCOCC5)nc4)nc32)cc1	> 19.9 µM (inactive)
c1ccc(CN2CCC(Nc3nc(Nc4ccc(N5CCOCC5)cc4)nc4nc[nH]c34)CC2)cc1	> 19.7 µM (inactive)
COc1ccc(-c2nc(C)cc(Nc3ccc(N4CCOCC4)cc3)n2)cc1	9.06 µM
COc1cc(NC(=O)c2cccc(-n3cc(NC(=O)Nc4c(C)cccc4Cl)cn3)c2)cc(OC)c1OC	> 19.2 µM (inactive)
FC(F)(F)c1ccc(Cn2cnc3c(NC4CCN(Cc5ccccc5)CC4)nc(Nc4ccc(N5CCOCC5)cc4)nc32)cc1	inactive
c1cc(Nc2ccc3c(c2)OCO3)nc(N2CCN(Cc3ccc4c(c3)OCO4)CC2)n1	> 20.1 µM (inactive)
CN(C)c1cccc(Nc2ccc(-n3cc(CC(=O)Nc4ccc5c(c4)OCO5)c4ccccc43)nn2)c1	> 19 µM (inactive)
Oc1ccc(CCNc2ncnc3nc(N4CCN(Cc5ccc6c(c5)OCO6)CC4)[nH]c23)cc1	> 16.9 µM (inactive)
c1ccc(-c2ncn[nH]2)c(Nc2ccnc(Nc3ccc(N4CCOCC4)cc3)c2)c1	> 19.2 µM (inactive)
COc1cc2nc(Nc3cc(OC)c(OC)c(OC)c3)nc(Nc3ccc(N4CCOCC4)cc3)c2cc1OC	> 20.3 µM (inactive)
O=C(Cc1cn(-c2ccc(N3CCN(Cc4ccc5c(c4)OCO5)CC3)nn2)c2ccccc12)Nc1ccc(N2CCOCC2)cc1	> 20 µM (inactive)
COc1cc2nc(Nc3ccc(N4CCOCC4)cc3)nc(Nc3ccc(OCCN4CCCCC4)cc3)c2cc1OC	> 17.5 µM (inactive)
Cc1cc(Nc2ccc3c(c2)OCO3)nc(N2CCN(Cc3ccc4c(c3)OCO4)CC2)n1	inactive
CCN(CC)C(=O)C1CCCN(c2nc(Nc3ccc(N4CCOCC4)cc3)c3ncn(Cc4ccc(C(F)(F)F)cc4)c3n2)C1 (centres undefined)	inactive
Cc1cc(Nc2ccc3c(c2)OCO3)nc(Nc2cccc(N(C)C)c2)n1	5.32 µM
FC(F)(F)c1cccc(CNc2nc(Nc3ccc(N4CCOCC4)cc3)nc3nc[nH]c23)c1	inactive
COc1ccc(-c2ncn(-c3ccc(Nc4nccc(-c5cc(C#N)cc(N6CCNCC6)c5)n4)cc3)n2)cn1	> 19.2 µM (inactive)
CN(C)c1cccc(Nc2nc(Nc3ccc4c(c3)OCO4)c3ncn(Cc4ccc(C(F)(F)F)cc4)c3n2)c1	inactive
CN(C)c1cccc(Nc2nc(Nc3ccc(N4CCOCC4)cc3)c3[nH]cnc3n2)c1	inactive
c1cc(-n2cnc3c(Nc4ccc(N5CCOCC5)cc4)nc(N4CCN(Cc5ccc6c(c5)OCO6)CC4)nc32)cs1	inactive
COc1ccc(CCNc2nc(N3CCN(Cc4ccc5c(c4)OCO5)CC3)nc3c2ncn3C2CCCCC2)cc1	> 22.5 µM (inactive)
COc1cc2nc(Nc3nc4ccccc4n3C)nc(Nc3ccc(NC(C)=O)cc3)c2cc1OC	4.33 µM
FC(F)(F)c1cc(-c2ccnc(Nc3ccc(N4CCOCC4)cc3)n2)cc(N2CCOCC2)c1	> 19.2 µM (inactive)

SMILES	IC50
CN(C)c1cccc(Nc2nc(NCCc3ccc(O)cc3)c3ncn(C4CCCCC4)c3n2)c1	> 20 µM (inactive)
c1ccc(-n2cnc3c(NCc4cccnc4)nc(Nc4ccc(N5CCOCC5)cc4)nc32)cc1	inactive
c1ccc(CCn2ncc(-c3ccnc(Nc4ccc(N5CCOCC5)cc4)c3)c2Nc2ccccc2)cc1	> 19.2 µM (inactive)
Nc1cc(C2=C3C=CN=C3C(=O)NCC2)c(O)[nH]1	> 19.2 µM (inactive)
COc1cc2nc(Nc3ccc(N4CCOCC4)cc3)nc(Nc3ccccc3)c2cc1OC	> 20.1 µM (inactive)
CN(C)c1cc(F)cc(-c2ccnc(Nc3ccc(-n4cnc(N5CCC(O)CC5)n4)cc3)n2)c1	> 19.2 µM (inactive)
COc1cc(Nc2nc(Nc3ccc(N4CCOCC4)cc3)c3ncn(Cc4ccc(C(F)(F)F)cc4)c3n2)cc(OC)c1OC	inactive
CCCNc1nc(Nc2ccc(N3CCOCC3)cc2)nc2c1ncn2C1CCCCC1	inactive
Cc1cccc(Nc2ccc3c(cnn3-c3cccc(C(=O)NCCN4CCN(CC5CC5)CC4)c3)c2)c1Cl	> 19.2 µM (inactive)
COc1cc(Nc2nc(N3CCc4ccccc4C3)nc3c2ncn3-c2ccccc2)cc(OC)c1OC	inactive
COc1cc2nc(Nc3ccc(N4CCOCC4)cc3)nc(Nc3cc(OC)c(OC)c(OC)c3)c2cc1OC	inactive
O=C1CCCN1CCCNc1nc(Nc2ccc(-n3ccnc3)cc2)nc2c1ncn2-c1ccsc1	> 19.9 µM (inactive)
CC(C)n1cnc2c(Nc3ccc4c(c3)OCO4)nc(Nc3ccc(N4CCOCC4)cc3)nc21	> 20 µM (inactive)
Cn1cc(-c2ccc3cnc(Nc4ccc(-n5cnc(N6CCOCC6)n5)cc4)nc3c2)cn1	> 19.2 µM (inactive)
FC(F)(F)c1ccc(Cn2cnc3c(Nc4ccc5c(c4)OCO5)nc(NC4CCN(Cc5ccccc5)CC4)nc32)cc1	> 20.5 µM (inactive)
CCN(CC)c1nc(Nc2ccc(N3CCOCC3)cc2)nc(Nc2ccc(-n3ccnc3)cc2)n1	8.79 µM
CC(C)n1cnc2c(Nc3ccc4c(c3)OCO4)nc(Nc3cccc(N(C)C)c3)nc21	> 19.9 µM (inactive)
Cc1cc(Nc2ccc3c(c2)OCO3)nc(Nc2ccc(N3CCOCC3)cc2)n1	inactive
Fc1cnc(Nc2ccc(N3CCNCC3)cc2)cc1-n1cnc(Nc2ccccc2)n1	> 19.2 µM (inactive)
CC(C)n1c(Nc2cccc(N(C)C)c2)nc2c(NC3CCN(Cc4ccccc4)CC3)ncnc21	> 18.8 µM (inactive)
COc1cc2nc(Nc3ccc(N4CCOCC4)cc3)nc(NCc3ccccc3)c2cc1OC	> 20 µM (inactive)
CN1CCN(c2nc(C3COc4ccccc4O3)nc3ccc(-c4cn[nH]c4)cc23)CC1 (centres undefined)	> 19.2 µM (inactive)
Cn1ccc2cc(-c3cc(Nc4ccc(N5CCOCC5)cc4)nc(N)n3)ccc21	> 20 µM (inactive)
Cc1cc(Nc2ccc(N3CCOCC3)cc2)nc(Nc2ccccc2)n1	inactive
c1ccc(Oc2ccc(Nc3nc(N4CCc5ccccc5C4)nc4c3ncn4-c3ccccc3)cc2)cc1	> 20 µM (inactive)
Cc1cc(NC2CCN(Cc3ccccc3)CC2)nc(Nc2cccc(N(C)C)c2)n1	> 21.2 µM (inactive)
FC(F)(F)c1ccc(Cn2cnc3c(Nc4ccc(N5CCOCC5)cc4)nc(N4CCN(Cc5ccc6c(c5)OCO6)CC4)nc32)cc1	inactive
